Measurements: ChEMBL document CHEMBL1136837, “Unified QSAR approach to antimicrobials. 4. Multi-target QSAR modeling and comparative multi-distance study of the giant components of antiviral drug-drug complex networks” (Bioorg Med Chem, 2009)
pIC50: −log10 of the molar value.

What was measured:
Hepatitis B virus = assay: Antiviral activity against Hepatitis B virus; format: functional, organism-based
Human papillomavirus = assay: Antiviral activity against Human papillomavirus; format: functional, organism-based
Human alphaherpesvirus 3 = assay: Antiviral activity against Varicella zoster virus; format: functional, organism-based
[1] = test system: Human immunodeficiency virus 1; assay: Antiviral activity against HIV1; format: functional, organism-based
[2] = test system: unidentified influenza virus; assay: Antiviral activity against influenza virus; format: functional, organism-based
Cowpox virus = assay: Antiviral activity against Cowpox virus; format: functional, organism-based
Vaccinia virus = assay: Antiviral activity against Vaccinia virus; format: functional, organism-based, Orthopoxvirus vaccinia; conditions: Orthopoxvirus vaccinia
[3] = test system: Human immunodeficiency virus 2; assay: Antiviral activity against HIV2; format: functional, organism-based

Nc1nc(Sc2ccc(Cl)cc2)c2ncn(CCOCP(=O)(OCC(F)(F)F)OCC(F)(F)F)c2n1
pIC50 (Hepatitis B virus): 6.92

CC(C)COc1ccc(Sc2nc(N)nc3c2ncn3CCOCP(=O)(OCC(F)(F)F)OCC(F)(F)F)cc1
pIC50 (Hepatitis B virus): 6.08

CC(C)Oc1ccc(Sc2nc(N)nc3c2ncn3CCOCP(=O)(OCC(F)(F)F)OCC(F)(F)F)cc1
pIC50 (Hepatitis B virus): 6.54

COc1ccccc1Sc1nc(N)nc2c1ncn2CCOCP(=O)(OCC(F)(F)F)OCC(F)(F)F
pIC50 (Hepatitis B virus): 7.10

CN(C(=O)c1ccc(-c2ccc(S(=O)(=O)CC(=O)O)cc2)cc1)c1ccccc1
pIC50 (Human papillomavirus): 5.32

C[C@H](NC(=O)c1cccc(-c2ccc(S(=O)(=O)CC(=O)O)cc2)c1)c1ccccc1
pIC50 (Human papillomavirus): 5.77

Cc1ccccc1CNC(=O)c1cccc(-c2ccc(S(=O)(=O)CC(=O)O)cc2)c1
pIC50 (Human papillomavirus): 7.49

C[C@@H](NC(=O)c1cccc(-c2ccc(S(=O)(=O)CC(=O)O)cc2)c1)c1ccccc1
pIC50 (Human papillomavirus): 7.37

O=C(O)CS(=O)(=O)c1ccc(-c2ccc(C(=O)N3CCCCC3)cc2)cc1
pIC50 (Human papillomavirus): 5.48

O=C(O)CS(=O)(=O)c1ccc(-c2cccc(CC(=O)NCc3ccccc3)c2)cc1
pIC50 (Human papillomavirus): 6.52

Nc1ncnc2c1ncn2/C=C1\CC1(F)CO (configuration not stated)
pIC50 (Human alphaherpesvirus 3): 4.08
pIC50 (Hepatitis B virus): 4.82

Nc1nc2c(ncn2/C=C2/CC2(F)CO)c(=O)[nH]1 (configuration not stated)
pIC50 (Human alphaherpesvirus 3): 4.10
pIC50 [1]: 4.00
pIC50 (Hepatitis B virus): 4.70

NC(=O)CS(=O)(=O)c1ccc(-c2ccccc2)cc1
pIC50 (Human papillomavirus): 4.10

O=C(O)CS(=O)(=O)c1ccc(-c2cccc(C(=O)NCc3cccc4ccccc34)c2)cc1
pIC50 (Human papillomavirus): 8.37

COC(=O)/C(O)=C/C(=O)c1ccccc1
pIC50 [2]: 3.30

C=CCNc1nc(N)nc2c1ncn2CCOCP(=O)(O)O
pIC50 (Cowpox virus): 3.94
pIC50 (Vaccinia virus): 4.60

CC(C)(C(=O)O)S(=O)(=O)c1ccc(-c2ccccc2)cc1
pIC50 (Human papillomavirus): 4.10

CCOC(=O)C(C)NP1(=O)CO[C@@H](Cn2ccc(N)nc2=O)CO1 (some centres not stated)
pIC50 (Cowpox virus): 4.59
pIC50 (Vaccinia virus): 4.82

CC(C)OC(=O)C(C)NP(=O)(COCCn1cnc2c(NC3CC3)nc(N)nc21)Oc1ccccc1 (configuration not stated)
pIC50 (Cowpox virus): 5.59

O=C(Nc1ccc2c(c1)N(O)C(=O)/C2=C(\O)c1ccccc1)c1ccc(NC(=O)c2cccs2)cc1
pIC50 [2]: 4.70

NC(=O)/C(O)=C/C(=O)C1CCCCC1
pIC50 [2]: 3.30

O=C(O)CS(=O)(=O)c1ccc(NCCc2ccccc2)cc1
pIC50 (Human papillomavirus): 4.17

NC1c2[nH]cnc2N=CN1C[C@@H](CO)OCP(=O)(O)O (some centres not stated)
pIC50 (Cowpox virus): 3.48

CN(C)c1nc(N)nc2c1ncn2CCOCP(=O)(O)O
pIC50 (Cowpox virus): 4.28
pIC50 (Vaccinia virus): 4.46

Nc1nc(NCC(F)(F)F)c2ncn(CCOCP(=O)(O)O)c2n1
pIC50 (Cowpox virus): 3.57
pIC50 (Vaccinia virus): 4.38

CC(=O)Nc1nc(C)c(S(=O)(=O)Nc2ccc(C(=O)Nc3ccc4c(c3)N(O)C(=O)/C4=C(\O)c3ccccc3)cc2)s1
pIC50 [2]: 4.49

O=C(O)CS(=O)(=O)c1ccc(Sc2ccccc2)cc1
pIC50 (Human papillomavirus): 4.10

O=C(O)CS(=O)(=O)c1cccc(COc2ccccc2)c1
pIC50 (Human papillomavirus): 4.10

O=C(/C=C/c1ccccc1Cl)Nc1ccc(C(=O)Nc2ccc3c(c2)N(O)C(=O)/C3=C(\O)c2ccccc2)cc1
pIC50 [2]: 5.02

CCCCOC(=O)C[C@H](C)NP(=O)(COCCn1cnc2c(N)ncnc21)N[C@@H](C)C(=O)OCCCC (some centres not stated)
pIC50 (Cowpox virus): 5.00
pIC50 (Vaccinia virus): 5.36

O=C(Nc1ccc2c(c1)N(O)C(=O)/C2=C(\O)c1ccccc1)c1ccc(NS(=O)(=O)c2cccs2)cc1
pIC50 [2]: 4.32

CC(C)OC(=O)C(C)NP(=O)(CO[C@H](C)Cn1cnc2c(N)ncnc21)Oc1ccccc1 (some centres not stated)
pIC50 (Cowpox virus): 4.00

Cc1cc(OCCOCP(=O)(O)O)nc(N)n1
pIC50 [3]: 9.36

O=C(N/C(C(=O)N1CCCCC1)=C(/Cl)c1ccccc1)c1ccccc1
pIC50 (Hepatitis B virus): 4.67

Cc1cn([C@@H]2O[C@H](CO)[C@@H](O)[C@@H]2F)c(=O)[nH]c1=O [5-METHYL-2'-FLUOROARAURACIL]
pIC50 (Hepatitis B virus): 6.08

CC(C)(C)C(=O)OCOP(=O)(COCCn1cnc2c(N)ncnc21)OCOC(=O)C(C)(C)C [ADEFOVIR DIPIVOXIL]
pIC50 (Cowpox virus): 4.89
pIC50 (Vaccinia virus): 5.29

COc1ccc(Sc2nc(N)nc3c2ncn3CCOCP(=O)(OCC(F)(F)F)OCC(F)(F)F)cc1 [ALAMIFOVIR]
pIC50 (Hepatitis B virus): 7.52

O=C(NO)c1ccccc1 [BENZOHYDROXAMATE]
pIC50 [2]: 3.30

CCCCCCCCCCCCCCCCOCCCOP(=O)(O)CO[C@H](CO)Cn1ccc(N)nc1=O [BRINCIDOFOVIR]
pIC50 (Cowpox virus): 6.22

O=c1[nH]cnc2c1ncn2[C@H]1CC[C@@H](CO)O1 [DIDANOSINE]
pIC50 [1]: 5.40
pIC50 (Cowpox virus): 3.37
pIC50 (Vaccinia virus): 3.37

O=c1[nH]c(=O)n([C@@H]2O[C@H](CO)[C@@H](O)[C@@H]2F)cc1I [FIALURIDINE]
pIC50 (Cowpox virus): 6.62

O=c1[nH]c(=O)n([C@H]2C[C@H](O)[C@@H](CO)O2)cc1I [IDOXURIDINE]
pIC50 (Cowpox virus): 5.70
pIC50 (Vaccinia virus): 5.22

Nc1ccn([C@@H]2CS[C@H](COP(=O)(O)OP(=O)(O)OP(=O)(O)O)O2)c(=O)n1 [LAMIVUDINE TRIPHOSPHATE]
pIC50 (Hepatitis B virus): 8.12

COc1c(C)c2c(c(O)c1C/C=C(\C)CCC(=O)O)C(=O)OC2 [MYCOPHENOLIC ACID]
pIC50 (Cowpox virus): 5.49

Nc1nc(O)c2ncn(CCC(CO)CO)c2n1 [PENCICLOVIR]
pIC50 (Hepatitis B virus): 3.99

Cc1cn([C@H]2C=C[C@@H](CO)O2)c(=O)[nH]c1=O [STAVUDINE]
pIC50 (Cowpox virus): 3.35
pIC50 (Vaccinia virus): 3.35

C[C@H](Cn1cnc2c(N)ncnc21)OCP(=O)(O)O [TENOFOVIR ANHYDROUS]
pIC50 [1]: 5.14
pIC50 (Cowpox virus): 3.52
pIC50 (Vaccinia virus): 3.52
